Values of other authors in patent US20220362410A1, “PREFERRED ANTERIOR CAPSULOTOMY LOCATION PROVIDED BY TRYPAN BLUE OPTHALMIC SOLUTION” (Excel-Lens, Inc., priority 2018, published 2022).

Test system: cell toxicity
Details: concentrations above the range 0.2 to 0.45%

## Cc1cc(-c2ccc(/N=N/c3c(S(=O)(=O)O)cc4cc(S(=O)(=O)O)cc(N)c4c3O)c(C)c2)ccc1/N=N/c1c(S(=O)(=O)O)cc2cc(S(=O)(=O)O)cc(N)c2c1O [Trypan Blue]
  cell toxicity: cell toxicity was noted
